Test results reported in patent US7271260B2, “3,4-dihydroquinazoline derivatives as T-type calcium channel blockers and method of preparing the same” (Korea Institute of Science and Technology, priority 2004, dated 2007).
Like-named read-outs stand apart in the source and are kept apart here.

Tests used:
[1] = target: T1, T-type calcium channel α1H (Cav3.2) (Homo sapiens, UniProt O95180); assay: Two-electrode voltage clamp on Xenopus unfertilized oocytes expressing α1H T-type calcium channel; format: cell-based; details: test potential -20 mV from -90 mV; for inhibition at 100 µM: read-out: inhibitory effect (blocking percentage), Xenopus oocyte (α1H) at 100 μM
T1 construct: expressed in transfected cells; host or cells: Xenopus laevis unfertilized oocytes injected with cRNA (pGEM-HEA linearised with AflII, T7 transcription)
Protocol: In order to express a gene encoding T-type calcium channel α1H (Cav3.2) (Cribbs, L. L. et al., Circ. Res., 1998, 83, 103-109) in unfertilized Xenopus oocytes, pGEM-HEA was treated with restriction enzyme AflII to obtain a DNA fragment containing 5′-terminal region having the T-type calcium channel cDNA (AF051946). cRNA having a corresponding sequence to that of the fragment was synthesized using T7 RNA polymerase according to the manufacturer's instructions (mMESSAGE mMACHINE kit, Ambion, Austin, U.S.A.). The synthesized cRNA was quantified by measuring the O.D. value with a spectrophotometer. At this time, unfertilized oocytes were prepared from female Xenopus laevis (Xenopus I, U.S.A.) according to the following method. After the frog's abdomen was incised by about 1 cm, three to four lobes were detached therefrom with scissors and separated into small pieces to which several oocytes were attached. The small pieces were hydrolyzed in OR solution (82.5 mM NaCl, 2.5 mM KCl, 1 mM MgCl2, 5 mM HEPES, pH 7.6) and supplemented with collagenase type IA (Sigma, U.S.A.) to remove defolliculation. After selecting healthy oocytes with a dissecting microscope, they were soaked in SOS solution (100 mM NaCl, 2 mM KCl, 1.8 mM CaCl2, 1 mM MgCl2, 5 mM HEPES, 2.5 mM pyruvate, […] gentamicin, pH 7.6) for 3 to 4 hours to revitalize them. 2 to 5 ng of cRNA was injected into each oocyte using Nano-injector. The oocytes were subjected to a test in order to examine the electrical properties of the channel expressed therefrom 4 to 5 days after the injection while being maintained at 18° C.
The current of the calcium channel expressed from the Xenopus unfertilized oocytes was measured according to a two-electrode voltage clamping method. The current was measured in 10 mM Ba^2+ solution (10 mM Ba(OH)2, 90 mM NaOH, 1 mM KCl, 0.1 mM EDTA, 5 mM HEPES, pH was adjusted to 7.4 with methanesulfonic acid). At this time, the voltage clamp and current measurement were regulated with an amplifier for unfertilized oocytes (Model OC-725C, Warner Instrument Corp., U.S.A.), and analog signals were converted into digital signals using Digidata 2000A (Analog-Digital converter, Axon Instrument). The acquisition, storage and analysis of all data were recorded in Pentium IV computer via pCLAMP8. The data were mainly collected at 5 KHz and filtered at 1 KHz (Model 902 filter; Frequency devices located at Harverhill, Mass., U.S.A.). The T-type current was generated by imposing test electric potential of −20 mV every 15 seconds on the unfertilized oocytes, the potential of which was fixed at −90 mV. A blocking percentage was calculated by comparing the […] before and after the drug treatment.

[2] = target: T2, α1G T-type calcium channel (Rattus norvegicus, UniProt O54898); assay: Whole cell patch clamp on HEK 293 cells expressing α1G T-type calcium channel; format: cell-based; details: for IC50: read-out: IC50, HEK293 cells (α1G)
T2 construct: expressed in transfected cells; Perez-Reyes, University of Virginia
Protocol: HEK 293 cells were cultured in Dulbecco's modified Eagle's medium (DMEM) supplemented with 10% fetal bovine serum (FBS) and 1% penicillin/streptomycin (v/v) in 36.5° C. humidified incubator (95% air-5% CO2). The culture solution was replaced with a fresh medium every 3 to 4 days and the cultured cells were subjected to sub-culture every week. At this time, the culture solution was treated with G-418 (0.5 mg/ml) solution so that only HEK 293 cells expressing α1G T-type calcium channel can grow. The cells used for the T-type calcium channel activity assay were cultured on a cover slip coated with poly-L-lysine (0.5 mg/ml) whenever sub-cultured and their calcium channel activity was recorded 2 to 7 days after the cultivation. The current of the T-type calcium channel at a single cell level was measured according to an electrophysiological whole cell patch clamping method using EPC-9 amplifier (HEKA, German). At this time, a cell exterior solution [140 mM NaCl, 2 mM CaCl2, 10 mM HEPES (pH 7.4)] and a cell interior solution [KCl 130 mM, HEPES 10 mM, EGTA 11 mM, MgATP 5 mM (pH 7.4)] were employed. The inward current caused by the T-type calcium channel activation was measured according to a T-type calcium channel protocol activated at low current. Such current occurs when the cells were converted into a whole-cell recording mode by stabbing a microglass electrode having 3-4 MΩ resistance, which was filled with the cell interior solution into a single cell and depolarized at −30 mV (50 ms duration period) every 10 seconds with fixing membrane potential to −100 mV.
In order to confirm whether the cells and methods used in Test Example 2 are a suitable screening system for selecting T-type calcium channel blockers, the results obtained in Example 2 were compared with those of α1G T-type calcium channel study reported in a public document (Monteil, A. et al., J. Biol. Chem. 275, 6090-6100, 2000). […] Thus, the candidate compounds were subjected to a test for their inhibitory effects on the T-type calcium channel according to the screening system of the present invention, as follows. Each compound was dissolved in 100% dimethylsulfoxide (DMSO) to prepare 10 mM stock solution. The inhibitory effect on the T-type calcium channel current was examined in 10 μM sample solution (containing 0.1% DMSO) prepared by diluting the stock solution by 1000-fold. The cells were treated with each compound at a concentration of 10 μM for 30 to 60 sec with the cell exterior solution.

[3] = HEK293, 10 μM, HEK 293 cells expressing α1G, 30 to 60 sec treatment, read-out: inhibitory effect on peak current, HEK293 cells (α1G) at 10 μM
[4] = HEK293, read-out: inhibitory effect on peak current, HEK293 cells (α1G) at 10 μM

T2 sequence (O54898 whole entry): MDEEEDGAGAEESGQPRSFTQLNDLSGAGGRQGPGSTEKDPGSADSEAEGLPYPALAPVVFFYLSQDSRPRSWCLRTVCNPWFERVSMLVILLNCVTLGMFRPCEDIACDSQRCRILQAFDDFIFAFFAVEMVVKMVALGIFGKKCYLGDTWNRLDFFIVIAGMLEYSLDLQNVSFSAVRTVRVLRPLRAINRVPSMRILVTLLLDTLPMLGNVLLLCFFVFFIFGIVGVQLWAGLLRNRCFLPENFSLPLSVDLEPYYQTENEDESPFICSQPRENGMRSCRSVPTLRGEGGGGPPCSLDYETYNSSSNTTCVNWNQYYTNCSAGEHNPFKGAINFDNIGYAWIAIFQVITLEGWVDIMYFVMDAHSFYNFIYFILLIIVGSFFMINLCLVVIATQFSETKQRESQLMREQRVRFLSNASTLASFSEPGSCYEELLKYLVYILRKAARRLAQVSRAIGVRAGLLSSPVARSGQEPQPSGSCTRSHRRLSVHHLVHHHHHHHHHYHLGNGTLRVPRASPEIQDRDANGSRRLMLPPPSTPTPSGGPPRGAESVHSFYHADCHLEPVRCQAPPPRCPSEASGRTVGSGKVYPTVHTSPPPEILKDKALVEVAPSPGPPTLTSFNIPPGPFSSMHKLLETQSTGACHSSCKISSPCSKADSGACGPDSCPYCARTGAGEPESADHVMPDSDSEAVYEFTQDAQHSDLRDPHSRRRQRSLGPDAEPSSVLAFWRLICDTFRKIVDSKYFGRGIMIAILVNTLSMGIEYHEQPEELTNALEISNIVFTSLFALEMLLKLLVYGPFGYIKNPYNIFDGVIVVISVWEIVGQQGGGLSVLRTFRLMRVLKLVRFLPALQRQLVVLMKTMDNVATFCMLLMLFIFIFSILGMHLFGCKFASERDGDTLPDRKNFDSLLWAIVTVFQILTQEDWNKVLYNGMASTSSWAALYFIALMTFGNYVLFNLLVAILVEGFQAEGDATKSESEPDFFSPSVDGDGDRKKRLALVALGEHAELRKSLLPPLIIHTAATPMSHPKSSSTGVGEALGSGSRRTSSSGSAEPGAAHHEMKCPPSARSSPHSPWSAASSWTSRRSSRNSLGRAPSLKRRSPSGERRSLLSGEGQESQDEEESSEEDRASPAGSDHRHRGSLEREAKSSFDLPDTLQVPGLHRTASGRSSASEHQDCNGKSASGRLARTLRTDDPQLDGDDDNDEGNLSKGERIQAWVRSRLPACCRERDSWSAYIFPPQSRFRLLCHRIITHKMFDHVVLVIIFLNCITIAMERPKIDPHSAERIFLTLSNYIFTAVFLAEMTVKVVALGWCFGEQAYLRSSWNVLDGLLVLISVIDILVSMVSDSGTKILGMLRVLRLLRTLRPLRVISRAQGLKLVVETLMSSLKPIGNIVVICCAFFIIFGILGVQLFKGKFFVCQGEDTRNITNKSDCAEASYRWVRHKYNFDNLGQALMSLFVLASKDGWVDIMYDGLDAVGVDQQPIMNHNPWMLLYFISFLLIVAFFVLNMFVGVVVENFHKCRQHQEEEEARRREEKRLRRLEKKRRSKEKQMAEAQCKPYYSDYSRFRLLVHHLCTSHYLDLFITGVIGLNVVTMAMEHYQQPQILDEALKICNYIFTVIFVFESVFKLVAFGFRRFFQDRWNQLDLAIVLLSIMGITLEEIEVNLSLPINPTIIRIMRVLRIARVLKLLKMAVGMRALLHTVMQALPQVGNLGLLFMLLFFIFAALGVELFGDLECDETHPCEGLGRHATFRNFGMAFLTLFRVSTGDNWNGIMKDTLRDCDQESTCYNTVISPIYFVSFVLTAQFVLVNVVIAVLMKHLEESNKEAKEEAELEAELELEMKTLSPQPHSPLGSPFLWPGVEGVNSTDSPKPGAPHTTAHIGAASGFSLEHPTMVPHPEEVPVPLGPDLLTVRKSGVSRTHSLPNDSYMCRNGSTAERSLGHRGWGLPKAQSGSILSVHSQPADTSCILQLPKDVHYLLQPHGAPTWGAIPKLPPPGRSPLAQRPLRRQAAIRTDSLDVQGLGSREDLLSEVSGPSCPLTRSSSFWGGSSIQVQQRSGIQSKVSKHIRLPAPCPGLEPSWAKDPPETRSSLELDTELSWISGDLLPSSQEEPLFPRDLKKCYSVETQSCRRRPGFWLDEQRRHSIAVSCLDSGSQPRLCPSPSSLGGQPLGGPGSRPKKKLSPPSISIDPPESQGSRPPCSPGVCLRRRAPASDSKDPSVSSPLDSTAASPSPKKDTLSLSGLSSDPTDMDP
T1 sequence (O95180 whole entry): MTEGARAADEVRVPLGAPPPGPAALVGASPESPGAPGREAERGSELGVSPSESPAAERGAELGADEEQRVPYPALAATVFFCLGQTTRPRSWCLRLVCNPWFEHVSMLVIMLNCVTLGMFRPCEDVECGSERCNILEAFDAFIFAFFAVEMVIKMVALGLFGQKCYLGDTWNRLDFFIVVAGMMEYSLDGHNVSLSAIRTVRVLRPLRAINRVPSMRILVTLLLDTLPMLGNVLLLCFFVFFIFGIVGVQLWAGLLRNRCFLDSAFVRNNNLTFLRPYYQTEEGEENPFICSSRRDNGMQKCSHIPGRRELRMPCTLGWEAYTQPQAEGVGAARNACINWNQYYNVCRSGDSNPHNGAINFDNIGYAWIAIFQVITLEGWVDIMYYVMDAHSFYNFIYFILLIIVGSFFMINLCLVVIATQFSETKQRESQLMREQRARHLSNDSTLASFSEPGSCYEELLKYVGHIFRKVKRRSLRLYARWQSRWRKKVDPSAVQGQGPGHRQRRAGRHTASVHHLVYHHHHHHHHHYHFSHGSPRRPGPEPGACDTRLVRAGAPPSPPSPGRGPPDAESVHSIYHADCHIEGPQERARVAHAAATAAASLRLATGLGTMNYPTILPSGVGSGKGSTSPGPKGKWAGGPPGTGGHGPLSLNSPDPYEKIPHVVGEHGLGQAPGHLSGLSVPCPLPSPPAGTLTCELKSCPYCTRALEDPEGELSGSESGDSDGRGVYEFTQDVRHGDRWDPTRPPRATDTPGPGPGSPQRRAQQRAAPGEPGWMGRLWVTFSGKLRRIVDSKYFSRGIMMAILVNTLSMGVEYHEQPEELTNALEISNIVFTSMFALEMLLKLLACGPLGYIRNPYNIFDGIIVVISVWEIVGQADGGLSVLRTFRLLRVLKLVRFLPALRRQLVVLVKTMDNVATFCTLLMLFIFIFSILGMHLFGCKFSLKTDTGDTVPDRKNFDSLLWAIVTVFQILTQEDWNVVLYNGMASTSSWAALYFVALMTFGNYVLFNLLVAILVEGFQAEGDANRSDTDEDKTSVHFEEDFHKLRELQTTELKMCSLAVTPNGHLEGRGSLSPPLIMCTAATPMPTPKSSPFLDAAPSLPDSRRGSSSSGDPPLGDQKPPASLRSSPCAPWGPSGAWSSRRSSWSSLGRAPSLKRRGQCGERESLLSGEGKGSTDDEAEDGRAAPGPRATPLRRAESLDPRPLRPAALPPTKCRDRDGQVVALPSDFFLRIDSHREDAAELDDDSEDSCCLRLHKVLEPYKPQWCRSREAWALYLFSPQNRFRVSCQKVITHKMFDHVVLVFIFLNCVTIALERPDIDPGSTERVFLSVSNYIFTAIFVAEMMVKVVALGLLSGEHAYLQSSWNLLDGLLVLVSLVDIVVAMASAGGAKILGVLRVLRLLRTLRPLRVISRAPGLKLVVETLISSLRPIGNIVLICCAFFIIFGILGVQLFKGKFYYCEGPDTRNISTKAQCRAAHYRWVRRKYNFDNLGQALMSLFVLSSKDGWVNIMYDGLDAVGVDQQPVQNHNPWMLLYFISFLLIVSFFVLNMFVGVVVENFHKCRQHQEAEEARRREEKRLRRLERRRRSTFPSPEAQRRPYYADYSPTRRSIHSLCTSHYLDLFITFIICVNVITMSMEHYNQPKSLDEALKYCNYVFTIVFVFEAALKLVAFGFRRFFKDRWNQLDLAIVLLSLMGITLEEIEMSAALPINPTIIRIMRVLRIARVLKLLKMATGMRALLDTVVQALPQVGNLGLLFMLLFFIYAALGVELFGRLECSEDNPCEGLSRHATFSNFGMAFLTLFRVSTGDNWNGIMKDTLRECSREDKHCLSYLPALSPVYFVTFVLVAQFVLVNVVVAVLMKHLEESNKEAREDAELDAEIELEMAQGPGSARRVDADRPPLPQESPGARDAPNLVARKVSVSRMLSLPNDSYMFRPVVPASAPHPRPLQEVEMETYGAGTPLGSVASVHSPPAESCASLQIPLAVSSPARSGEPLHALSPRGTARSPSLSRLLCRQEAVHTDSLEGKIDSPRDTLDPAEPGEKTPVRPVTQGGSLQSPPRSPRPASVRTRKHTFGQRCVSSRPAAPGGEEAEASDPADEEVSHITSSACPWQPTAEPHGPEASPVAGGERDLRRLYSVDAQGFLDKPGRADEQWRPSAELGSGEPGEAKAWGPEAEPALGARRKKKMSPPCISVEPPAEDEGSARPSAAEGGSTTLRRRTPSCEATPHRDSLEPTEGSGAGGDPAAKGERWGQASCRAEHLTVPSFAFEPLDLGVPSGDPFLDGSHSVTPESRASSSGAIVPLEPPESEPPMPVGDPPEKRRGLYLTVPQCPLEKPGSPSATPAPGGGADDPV

Row | Compound | inhibition at 100 µM [1] [%] | inhibition at 10 µM [2, 3] [%] | IC50 ([2]; HEK 293 cells expressing α1G) [µM] | inhibition at 10 µM [2, 4] [%] | inhibitory effect (blocking percentage), Xenopus oocyte (α1H) at 100 μM [1] [%]
1 | O=C(CC1c2ccccc2N=C(N2CCOCC2)N1c1ccccc1)OCc1ccccc1 (stereo not shown) [Compound 05027] | 20.9 | – | – | – | –
2 | O=C(CC1c2ccccc2N=C(c2ccccc2)N1c1ccccc1)NCc1ccccc1 (stereo not shown) [Compound 05031] | 14.8 | – | – | – | –
3 | CN1CCN(C2=Nc3ccccc3C(CC(=O)OCc3ccccc3)N2c2ccccc2)CC1 (stereo not shown) [Compound 05029] | 32.7 | – | – | – | –
4 | O=C(CC1c2ccccc2N=C(N2CCOCC2)N1c1ccccc1)NCc1ccccc1 (stereo not shown) [KYS05026, 4-(N-benzylacetamido)-3-phenyl-2-(morpholin-1-yl)-3,4-dihydroquinazoline] | 63.8 | 40.5 | 21.6 | – | –
5 | O=C(CC1c2ccccc2N=C(N2CCCCC2)N1c1ccccc1)NCc1ccc([N+](=O)[O-])cc1 (stereo not shown) [KYS05034, 4-[N-(4-nitrobenzyl)acetamido]-3-phenyl-2-(piperidine-1-yl)-3,4-dihydroquinazoline] | 91.9 | – | 2.5 | 92.3 | –
6 | COCC(=O)O[C@]1(CCN(C)CCCc2nc3ccccc3[nH]2)CCc2cc(F)ccc2[C@@H]1C(C)C [Mibefradil, reference compound] | 86 | – | – | – | 86.0
7 | Nc1ccc(CNC(=O)CC2c3ccccc3N=C(N3CCCCC3)N2c2ccccc2)cc1 (stereo not shown) [Compound 05040] | 66.8 | 43.5 | 14.4 | – | –
8 | CN1CCN(C2=Nc3ccccc3C(CC(=O)NCc3ccccc3)N2c2ccccc2)CC1 (stereo not shown) [KYS05028, 4-(N-benzylacetamido)-3-phenyl-2-(4-methylpiperazinyl)-3,4-dihydroquinazoline] | 70.3 | – | 35.8 | 29 | –
9 | O=C(CC1c2ccccc2N=C(c2ccccc2)N1c1ccccc1)OCc1ccccc1 (stereo not shown) [Compound 05032] | 14.2 | – | – | – | –
10 | CCO/C(O)=C(\C#N)C1=Nc2ccccc2C(CC(=O)OC)N1c1ccccc1 (stereo not shown) [Compound 05033] | 38.9 | – | – | – | –
